Laboratory results published in the supplement of paper PMC11061612.

Assays:
[1] = system: NCI-H2818 (Mesothelioma); experiment: Bliss excess, mean over the matrix (fraction); higher = more synergy
In short: (§1)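 Cell lines grown in DMEM/F12 or RPMI with 10% FBS were plated in 1536-well plates and held 24 hours at 37°C, 5% CO2 before 72 hours of exposure to two-drug dose matrices, with DMSO typically at 0.2%. CellTiter-Glo 2.0 luminescence gave viability, which was converted to inhibition. Vehicle wells were set to 0 and blank wells to 1. Combination Emax is the second-highest inhibition in the matrix, and Bliss excess is the observed combination effect minus the expected EA + EB − EA·EB, where EA and EB are the single-agent effects.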

[2] = system: BL-41 (Burkitt's Lymphoma); experiment: as above
In short: as §1

[3] = system: ES1 (Ewing's Sarcoma); experiment: as above
In short: as §1

[4] = system: SW1417 (Colorectal Carcinoma); experiment: as above
In short: as §1

[5] = system: DND-41 (T-Lymphoblastic Leukemia); experiment: as above
In short: as §1

[6] = system: WIL2-NS (Non-Cancerous); experiment: as above
In short: as §1

[7] = system: K-562 (Chronic Myelogenous Leukemia); experiment: as above
In short: as §1

[8] = system: L-540 (Hodgkin's Lymphoma); experiment: as above
In short: as §1

[9] = system: NCI-H1792 (Lung Adenocarcinoma); experiment: as above
In short: as §1

[10] = system: SR (Other Blood Carcinomas); experiment: as above
In short: as §1

[11] = system: CAMA-1 (Breast Carcinoma); experiment: as above
In short: as §1

[12] = system: BFTC-905 (Bladder Carcinoma); experiment: as above
In short: as §1

[13] = system: ES8 (Ewing's Sarcoma); experiment: as above
In short: as §1

[14] = system: WM-115 (Melanoma); experiment: as above
In short: as §1

[15] = system: MKN28 (Gastric Carcinoma); experiment: as above
In short: as §1

[16] = system: SW837 (Colorectal Carcinoma); experiment: as above
In short: as §1

[17] = system: GR-ST (B-Lymphoblastic Leukemia); experiment: as above
In short: as §1

[18] = system: NCI-H2818 (Mesothelioma); experiment: combination Emax (second highest fraction inhibited in the dose matrix, 72 h); higher = more inhibition; extreme values may be limits of the assay
In short: as §1

[19] = system: BL-41 (Burkitt's Lymphoma); experiment: as above
In short: as §1

[20] = system: ES1 (Ewing's Sarcoma); experiment: as above
In short: as §1

[21] = system: SW1417 (Colorectal Carcinoma); experiment: as above
In short: as §1

[22] = system: DND-41 (T-Lymphoblastic Leukemia); experiment: as above
In short: as §1

[23] = system: WIL2-NS (Non-Cancerous); experiment: as above
In short: as §1

[24] = system: K-562 (Chronic Myelogenous Leukemia); experiment: as above
In short: as §1

[25] = system: L-540 (Hodgkin's Lymphoma); experiment: as above
In short: as §1

[26] = system: NCI-H1792 (Lung Adenocarcinoma); experiment: as above
In short: as §1

[27] = system: SR (Other Blood Carcinomas); experiment: as above
In short: as §1

[28] = system: CAMA-1 (Breast Carcinoma); experiment: as above
In short: as §1

[29] = system: BFTC-905 (Bladder Carcinoma); experiment: as above
In short: as §1

[30] = system: ES8 (Ewing's Sarcoma); experiment: as above
In short: as §1

[31] = system: WM-115 (Melanoma); experiment: as above
In short: as §1

[32] = system: MKN28 (Gastric Carcinoma); experiment: as above
In short: as §1

[33] = system: SW837 (Colorectal Carcinoma); experiment: as above
In short: as §1

[34] = system: GR-ST (B-Lymphoblastic Leukemia); experiment: as above
In short: as §1
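Throughout, for Bliss excess, mean over the matrix: after 72 h of two-drug dosing.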

Compound | Bliss excess [1] | Bliss excess [2] | Bliss excess [3] | Bliss excess [4] | Bliss excess [5] | Bliss excess [6] | Bliss excess [7] | Bliss excess [8] | Bliss excess [9] | Bliss excess [10] | Bliss excess [11] | Bliss excess [12] | Bliss excess [13] | Bliss excess [14] | Bliss excess [15] | Bliss excess [16] | Bliss excess [17] | combination Emax [18] | combination Emax [19] | combination Emax [20] | combination Emax [21] | combination Emax [22] | combination Emax [23] | combination Emax [24] | combination Emax [25] | combination Emax [26] | combination Emax [27] | combination Emax [28] | combination Emax [29] | combination Emax [30] | combination Emax [31] | combination Emax [32] | combination Emax [33] | combination Emax [34]
C=CCn1c(=O)c2cnc(Nc3ccc(N4CCN(C)CC4)cc3)nc2n1-c1cccc(C(C)(C)O)n1 [AZD1775] + CCc1c2c(nc3ccc(O)cc13)-c1cc3c(c(=O)n1C2)COC(=O)[C@]3(O)CC [SN-38] (first compound max 1 µM, partner max 0.3 µM) | -0.063 | -0.0252 | -0.0144 | -0.0298 | -0.0446 | -0.0755 | 0.0873 | -0.0458 | -0.0124 | 0.0049 | 0.0473 | -0.0133 | -0.0145 | -0.0252 | 0.0317 | -0.0222 | -0.0824 | 0.399 | 1 | 1 | 0.793 | 0.983 | 0.961 | 0.953 | 0.953 | 0.755 | 1 | 0.466 | 0.946 | 1 | 0.416 | 0.689 | 0.703 | 0.825
C=CCn1c(=O)c2cnc(Nc3ccc(N4CCN(C)CC4)cc3)nc2n1-c1cccc(C(C)(C)O)n1 [AZD1775] + Nc1ccn([C@@H]2O[C@H](CO)[C@@H](O)C2(F)F)c(=O)n1 [Gemcitabine] (first compound max 1 µM, partner max 0.3 µM) | -0.0333 | -0.0067 | 0.0471 | 0.0353 | 0.0256 | 0.0149 | 0.0554 | 0.0052 | -0.0287 | 0.0344 | 0.0354 | -0.0015 | 0.0248 | 0.0368 | 0.0781 | 0.0269 | -0.0072 | 0.44 | 1 | 1 | 0.663 | 0.943 | 0.973 | 0.869 | 0.968 | 0.878 | 1 | 0.534 | 0.836 | 1 | 0.459 | 0.552 | 0.691 | 0.855
CN(CCO)CC[C@H](CSc1ccccc1)Nc1ccc(S(=O)(=O)NC(=O)c2ccc(N3CCC([C@@H](O)c4ccccc4-c4ccc(Cl)cc4)CC3)cc2)cc1S(=O)(=O)C(F)(F)F [AZD4320] + CC(=O)O[C@H]1C(=O)[C@@]2(C)[C@H]([C@H](OC(=O)c3ccccc3)[C@]3(O)C[C@H](OC(=O)[C@H](O)[C@@H](NC(=O)c4ccccc4)c4ccccc4)C(C)=C1C3(C)C)[C@]1(OC(C)=O)CO[C@@H]1C[C@@H]2O [Paclitaxel] (first compound max 1 µM, 7x7, partner max 3 µM) | 0.0844 | -0.0222 | -0.0272 | 0.0037 | 0.187 | -0.0331 | -0.0181 | 0.0162 | 0.0049 | 0.0061 | 0.119 | 0.0384 | 0.0317 | 0.0811 | 0.0942 | 0.0777 | -0.0651 | 0.745 | 1 | 0.984 | 0.864 | 1 | 0.942 | 0.981 | 0.974 | 0.986 | 1 | 0.843 | 0.989 | 1 | 0.851 | 0.738 | 0.878 | 0.839
CN(CCO)CC[C@H](CSc1ccccc1)Nc1ccc(S(=O)(=O)NC(=O)c2ccc(N3CCC([C@@H](O)c4ccccc4-c4ccc(Cl)cc4)CC3)cc2)cc1S(=O)(=O)C(F)(F)F [AZD4320] + CS(=O)(=O)CCNCc1ccc(-c2ccc3ncnc(Nc4ccc(OCc5cccc(F)c5)c(Cl)c4)c3c2)o1 [Lapatinib] (first compound max 1 µM, 7x7, partner max 10 µM) | -0.0332 | -0.0006 | -0.0147 | 0.0238 | 0.0603 | -0.0018 | -0.03 | 0.137 | -0.0553 | 0.0765 | 0.0048 | 0.034 | 0.121 | 0.0604 | -0.0128 | 0.0547 | -0.0086 | 0.407 | 0.97 | 0.923 | 0.934 | 1 | 0.258 | 0.552 | 0.905 | 0.546 | 0.777 | 0.36 | 0.529 | 0.956 | 0.909 | 0.693 | 0.942 | 0.961
CN(CCO)CC[C@H](CSc1ccccc1)Nc1ccc(S(=O)(=O)NC(=O)c2ccc(N3CCC([C@@H](O)c4ccccc4-c4ccc(Cl)cc4)CC3)cc2)cc1S(=O)(=O)C(F)(F)F [AZD4320] + Nc1ccn([C@@H]2O[C@H](CO)[C@@H](O)C2(F)F)c(=O)n1 [Gemcitabine] (first compound max 1 µM, 7x7, partner max 0.3 µM) | 0.0008 | -0.0094 | -0.0239 | -0.0377 | 0.0375 | 0.0107 | 0.0054 | -0.0365 | 0.0469 | 0.053 | 0.063 | 0.0207 | 0.0312 | 0.0125 | -0.0338 | -0.0331 | -0.0009 | 0.717 | 1 | 1 | 0.49 | 1 | 0.987 | 0.353 | 0.951 | 0.823 | 1 | 0.651 | 0.9 | 1 | 0.688 | 0.283 | 0.475 | 0.765
Cc1c2c(nn1C)CSCc1cc(n(C)n1)CSc1cc(c3ccccc3c1)OCCCc1c(C(=O)O)n(C)c3c-2c(Cl)ccc13 [AZD5991] + CC(=O)O[C@H]1C(=O)[C@@]2(C)[C@H]([C@H](OC(=O)c3ccccc3)[C@]3(O)C[C@H](OC(=O)[C@H](O)[C@@H](NC(=O)c4ccccc4)c4ccccc4)C(C)=C1C3(C)C)[C@]1(OC(C)=O)CO[C@@H]1C[C@@H]2O [Paclitaxel] (first compound max 1 µM, 7x7, partner max 3 µM) | -0.0054 | -0.0098 | -0.0419 | 0.0164 | 0.0348 | -0.137 | -0.0245 | 0.0087 | -0.0037 | 0.0191 | 0.117 | 0.0108 | 0.0091 | -0.0392 | -0.011 | -0.0327 | -0.0628 | 0.599 | 1 | 1 | 0.529 | 0.251 | 0.824 | 0.877 | 1 | 0.959 | 1 | 0.957 | 0.975 | 1 | 0.631 | 0.49 | 0.62 | 0.805
Cc1c2c(nn1C)CSCc1cc(n(C)n1)CSc1cc(c3ccccc3c1)OCCCc1c(C(=O)O)n(C)c3c-2c(Cl)ccc13 [AZD5991] + CS(=O)(=O)CCNCc1ccc(-c2ccc3ncnc(Nc4ccc(OCc5cccc(F)c5)c(Cl)c4)c3c2)o1 [Lapatinib] (first compound max 1 µM, 7x7, partner max 10 µM) | -0.0282 | -0.0004 | -0.0151 | -0.0142 | -0.016 | -0.118 | 0.0139 | 0.04 | 0.0446 | 0.0023 | -0.0054 | 0.023 | 0.109 | -0.0164 | -0.0112 | -0.0176 | 0.0082 | 0.277 | 1 | 0.9 | 0.192 | 0.792 | 0.27 | 0.52 | 0.996 | 0.453 | 0.927 | 0.791 | 0.407 | 0.763 | 0.32 | 0.41 | 0.303 | 0.955
N#Cc1cnc(Nc2cc(NC[C@H]3CNCCO3)c(C(F)(F)F)cn2)cn1 [SRA737] + CCc1c2c(nc3ccc(O)cc13)-c1cc3c(c(=O)n1C2)COC(=O)[C@]3(O)CC [SN-38] (first compound max 10 µM, 7x7, partner max 0.3 µM) | -0.0605 | -0.0272 | -0.0145 | 0.019 | -0.0573 | -0.0262 | 0.138 | -0.0403 |  | -0.0069 | 0.0081 | -0.028 | 0.0054 | -0.0968 | 0.04 | 0.0267 | -0.102 | 0.337 | 1 | 1 | 0.803 | 0.974 | 0.982 | 0.977 | 0.938 | 0.889 | 1 | 0.393 | 0.912 | 1 | 0.421 | 0.552 | 0.805 | 0.836
